Source: PMC6349869, “The palladacycle complex AJ-5 induces apoptotic cell death while reducing autophagic flux in rhabdomyosarcoma cells” (Cell Death Discovery, 2019)

Key:
[1] = system: RMS cell lines including RD and RH30 cells; design: method as in PMID 10917549, PMID 11742497; details: after 4–5 days of treatment, range of RMS cell lines including RD and RH30; cited from earlier work
[2] = system: RH30 and RD cells; experiment: IC50 of doxorubicin established in the cell lines tested; assay type: cell-based; details: Homo sapiens

In the case of `N.N.[Cl][Pt][Cl]` [Cisplatin, cisplatin], the IC50 [1] is given as greater than 500 nM.
`COc1cccc2c1C(=O)c1c(O)c3c(c(O)c1C2=O)C[C@@](O)(C(=O)CO)C[C@@H]3O[C@H]1C[C@H](N)[C@H](O)[C@H](C)O1` [Doxorubicin, doxorubicin] gave an IC50 [2] of 500 nM.
